Experimental data from patent US11351209B2 (priority 2016, dated 2022).
Entries after “also recorded” stand apart in the source; their conditions may differ. Where two headings read alike, the source gives them in different places.

Experiments:
[1] = test system: p110 delta protein; format: cell-based, BALB/c mice
[2] = test system: bone marrow derived macrophages; format: cell-based, BALB/c mice
[3] = test system: CT26 flank tumours; format: in vivo, BALB/c mice; conditions: 75 mg kg^−1 IC87114 three hours before intravenous 1×10^8 PFU VVL15, days 1, 3, 4 and 5, vs vehicle buffer
[4] = test system: CT26 flank tumours; test: Efficacy study, oral IC87114 and intravenous VVL15, CT26 flank tumours; format: in vivo, BALB/c mice; conditions: IC87114 50 mg kg^−1 oral gavage three hours before intravenous VVL15 (Group D), vs all other groups
[5] = test system: orthotopic 4T1 tumours; test: Efficacy study, oral IC87114 and intravenous VVL15, orthotopic 4T1 tumours; format: in vivo, BALB/c mice; conditions: 4T1 orthotopic; IC87114 75 mg kg^−1 oral gavage three hours before intravenous VVL15 (Group D); vs all other groups
[6] = test system: Vaccinia virus; conditions: in vivo
[7] = test system: splenocytes; test: Ex vivo interferon gamma ELISA on splenocytes; format: in vivo, BALB/c mice; conditions: CT26-bearing mice, IC87114 75 mg kg^−1 oral three hours before intravenous VVL15
Procedure: Interferon gamma assay on splenocytes derived from BALB/c mice bearing CT26 tumours. Fifteen mice were subcutaneously injected in their shaved right flank with 1×10^6 CT26 tumour cells. […] An interferon (IFN) gamma ELISA was performed. Anti-tumour immunity: splenocytes were stimulated with mitomycin treated CT26 cells, there was no statistically significant difference between any of the groups.
FIG. 2E illustrates an ex vivo interferon gamma assay performed on splenocytes derived from BALB/c mice bearing CT26 tumours. […] Thus pre-treatment with IC87114 appears to reduce in magnitude the subsequent development of an anti-viral response. This potentially could mean that aside from the effect IC87114 has on macrophages at an early time point it has a separate more lasting effect that leads to reduced anti-viral immunity and to the establishment of an effective infection of the tumours leading to the observed improvement in efficacy compared to virus alone.

[8] = format: in vivo; conditions: Rats, oral administration
[9] = several trials; cited from earlier work

Row | Compound | p110 delta protein expression [1] | viral attachment to wild-type macrophages compared with p110 delta knock in macrophages ([2]; wild-type macrophages pretreated 2 hours with IC87114, vs untreated wild-type (P<0.05 or P<0.01)) | amount of VVL15 attached to macrophages (qPCR) ([2]; wildtype macrophages pretreated 2 hours with IC87114 vs untreated (P<0.001)) | Vaccinia virus detected on macrophages (confocal microscopy) ([2]; wildtype macrophages pretreated 2 hours with IC87114 vs vehicle buffer) | tumour luminescence signal [3] | tumour luminescence signal ([3]; listed as IC87714) | survival (Kaplan-Meier) [4] | survival (Kaplan-Meier) [5] | localisation of Vaccinia virus to the spleen [6] | number of cells immunoreactive for Vaccinia coat protein per ×200 field in spleen [6] | anti-tumour immunity: IFN gamma from splenocytes stimulated with mitomycin treated CT26 cells [7] | anti-viral immunity: IFN gamma from splenocytes stimulated with B8R protein ([7]; vs virus alone) | time to maximum plasma concentration [8] | toxicities in trials [9]
1 | Cc1ccccc1-n1c(Cn2cnc3c(N)ncnc32)nc2cccc(C)c2c1=O [IC87114, 2-[(6-amino-9H-purin-9-yl)methyl]-5-methyl-3-(2-methylphenyl)-4(3H)-quinazolinone] | does not appear to alter the amount of p110 delta protein detected | statistically significant from untreated wild-type macrophages | statistically significantly different from untreated macrophages; also recorded: significantly reduces VVL15 attachment to macrophages; also recorded: reduction in viral attachment to macrophages | less Vaccinia virus detected | significantly more signal | consistently higher tumour luminescence compared to control | improves survival; also recorded: survived significantly longer than all the other groups; also recorded: survival advantage | improves survival; also recorded: survived significantly longer than all other groups; also recorded: survival advantage | reduces the localisation of Vaccinia virus to the spleen | statistically significant difference between the groups | no effect on anti-tumour immunity | attenuates anti-viral immunity; also recorded: reduced levels of IFN gamma | 4 h | 
2 | CC[C@H](Nc1ncnc2[nH]cnc12)c1nc2cccc(F)c2c(=O)n1-c1ccccc1 [Idelalisib, 5-Fluoro-3-phenyl-2-[(1S)-1-(7H-purin-6-ylamino)propyl]-4(3H)-quinazolinone] |  |  |  |  |  |  |  |  |  |  |  |  |  | minimal toxicities
